Results as given in patent US20210290648A1, “Potentiation of B-Lactam Antibiotics and B-Lactam/B-Lactamase Inhibitor Combinations Against Multidrug and Extensively Drug-Resistant Pseudomonas Aeruginosa Using Non-Ribosomal Tobramycin-Cyclam Conjugates” (University of Manitoba, priority 2018, published 2021).

Key:
Assay type in all cases: cell-based, Pseudomonas aeruginosa
PA 100036 = experiment: Checkerboard combination study / MIC; conditions: for MICCombination (antibiotic): MIC of antibiotic combined with compound 2; for FICI: antibiotic + compound 2; for MICAntibiotic: antibiotic alone; for FICAntibiotic: with compound 2
PA 264 = experiment: Checkerboard combination study / MIC; conditions: for MICCombination (antibiotic): MIC of antibiotic combined with compound 2; for FICI: antibiotic + compound 2; for MICAntibiotic: antibiotic alone; for FICAntibiotic: with compound 2
PA 101885 = experiment: Checkerboard combination study / MIC; conditions: for MICCombination (antibiotic): MIC of antibiotic combined with compound 2; for FICI: antibiotic + compound 2; for MICAntibiotic: antibiotic alone; for FICAntibiotic: with compound 2
PA 259 = experiment: Checkerboard combination study / MIC; conditions: for MICAntibiotic: antibiotic alone
PA 91433 = experiment: Checkerboard combination study / MIC; conditions: PA 91433
WT P. aeruginosa PAO1 = experiment: Checkerboard combination study / MIC; conditions: for MIC of antibiotic + Compound 2 in PAO1 / fold change of MIC + Compound 2 in PAO1: + compound 2 ≤8.7 μM; for MIC: Pseudomonas aeruginosa, PAO1, 18 h, WT PAO1 (Table 2), read-out: MIC alone; for MIC / MIC of antibiotic alone in PAO1: antibiotic alone; for FICI in the presence of ≤10 μM of 1: antibiotic + compound 1; for FICI in the presence of ≤10 μM of 1 / MIC of Antibiotics in the presence of ≤10 μM of 1 / FICI in the presence of ≤10 μM of 2 / MIC of Antibiotics in the presence of ≤10 μM of 2 / FICI in the presence of ≤10 μM of 3 / MIC of Antibiotics in the presence of ≤10 μM of 3: WT PAO1; for MIC of Antibiotics in the presence of ≤10 μM of 1: antibiotic + compound 1 ≤10 μM; for FICI in the presence of ≤10 μM of 2: antibiotic + compound 2; for MIC of Antibiotics in the presence of ≤10 μM of 2: antibiotic + compound 2 ≤10 μM; for FICI in the presence of ≤10 μM of 3: antibiotic + compound 3; for MIC of Antibiotics in the presence of ≤10 μM of 3: antibiotic + compound 3 ≤10 μM; for MIC of antibiotic alone in PAO1: PAO1 wild-type (Table 4)
PA 114228 = experiment: Checkerboard combination study / MIC; conditions: for MICCombination (antibiotic): MIC of antibiotic combined with compound 2; for FICI: antibiotic + compound 2; for MICAntibiotic: antibiotic alone; for FICAntibiotic: with compound 2
PAO200 = conditions: for MIC of antibiotic + Compound 2 in PAO200 / fold change of MIC + Compound 2 in PAO200: + compound 2 ≤8.7 μM; for MIC of antibiotic alone in PAO200: PAO200 efflux-deficient
Source text: (§1) PAO200 is a tnexA-rnexB-oprM deletion strain while PAO750 lacks five important RND pumps (McxAB-OprM, MexCD-OprJ, MexEF-OprN, Mex JK, and MexXY) and the outer membrane protein OpmH (46, 47). Some of these pumps are homologues of broad substrate specificities that extrude different classes of antimicrobial agents and confer resistance on P. aeruginosa (48).
(§2) Antimicrobial Susceptibility Assay. The in vitro antimicrobial activity of all compounds/antibiotics against a panel of bacteria was evaluated by microbroth dilution method in accordance with the Clinical and Laboratory Standards Institute (CLSI) guidelines. Overnight grown bacterial cultures were diluted in saline to achieve a 0.5 McFarland turbidity, followed by 1:50 dilution in Mueller-Hinton broth (MHB) for inoculation to a final concentration of approximately 5×10^5CFU/mL. The antimicrobial agents were 2-fold serially diluted in MHB in a 96-well plate and incubated at 37° C. with equal volumes of inoculum for 18 h. The lowest concentration that prevented the visible growth of bacteria was defined as the MIC for each antimicrobial agent. The broth with or without bacterial cells was used as positive or negative control, respectively.
(§3) Checkerboard Assay. Combination studies with different antibiotics were performed in 96-well plates as previously described (22). Briefly, the antibiotic of interest was serially diluted in MHB along the abscissa while the adjuvant (newly synthesized conjugates) was serially diluted in MHB along the ordinate. This creates a 10×7 matrix wherein each well consists of a combination of different antibiotic and adjuvant concentrations. Overnight grown bacterial cultures were diluted in saline to achieve a 0.5 McFarland turbidity, followed by 1:50 dilution in Mueller-Hinton broth (MHB) for inoculation to a final concentration of approximately 5×10^5CFU/mL. Equal volume of this bacterial culture was then added to each well and incubated at 37° C. for 18 h. After incubation, the plates were read on EMax® Plus microplate reader (Molecular Devices, Sunnyvale, Calif., USA) at 590 nm. MIC was recorded as wells with the lowest concentration of drugs with no bacterial growth. The fractional inhibitory concentration (FIC) for each antibiotic was calculated by dividing the MIC of the antibiotic in the presence of adjuvant by the MIC of the antibiotic alone. Similarly, the FIC of adjuvant was calculated by dividing the MIC of the adjuvant in the presence of antibiotic by the MIC of the adjuvant alone. FIC index is the sum of both FICs. FIC indices of <0.5 were deemed synergistic; 0.5-4, no interaction; and >4, antagonistic.

PAO750 = conditions: for MIC of antibiotic + Compound 2 in PAO750 / fold change of MIC + Compound 2 in PAO750: + compound 2 ≤8.7 μM; for MIC of antibiotic alone in PAO750: PAO750 efflux-deficient
Source text: as §1, §2, §3

PA 262 = experiment: Checkerboard combination study / MIC; conditions: for MICCombination (antibiotic): MIC of antibiotic combined with compound 2; for FICI: antibiotic + compound 2; for MICAntibiotic: antibiotic alone; for FICAntibiotic: with compound 2
[1] = system: MDR/XDR P. aeruginosa clinical isolates; experiment: MIC and checkerboard, panel of clinical isolates; conditions: antibiotic + compound 2 (8.7 μM); resistant P. aeruginosa isolates
PA 101243 = experiment: Checkerboard combination study / MIC; conditions: PA 101243; for MICCombination (antibiotic): MIC of antibiotic combined with compound 2; for FICI: antibiotic + compound 2; for MICAntibiotic: antibiotic alone; for FICAntibiotic: with compound 2
PA 260 = experiment: Checkerboard combination study / MIC; conditions: for MICCombination (antibiotic): MIC of antibiotic combined with compound 2; for FICI: antibiotic + compound 2; for MICAntibiotic: antibiotic alone; for FICAntibiotic: with compound 2
[2] = MIC of antibiotic combined with compound 2

With `C[C@@H](O)[C@H]1C(=O)N2C(C(=O)O)=C(S[C@@H]3CN[C@H](CNS(N)(=O)=O)C3)[C@H](C)[C@H]12` [Doripenem] the “MICCombination (antibiotic)” value (PA 100036) was 8 µg/mL, the FICI (PA 100036) was less than 0.56 and the MICAntibiotic (PA 100036) was 16 µg/mL. For the same compound, the FICAntibiotic (PA 100036) was 0.500, the “MICCombination (antibiotic)” value (PA 264) was 8 µg/mL and the FICI (PA 264) was less than 0.51. The MICAntibiotic (PA 264) was 16 µg/mL, the FICAntibiotic (PA 264) was 0.500 and the “MICCombination (antibiotic)” value (PA 101885) was 1 µg/mL. For the same compound, the FICI (PA 101885) was less than 0.27, the MICAntibiotic (PA 101885) was 4 µg/mL and the FICAntibiotic (PA 101885) was 0.250. The MICAntibiotic (PA 259) was greater than 1024 µg/mL, the “MICCombination (antibiotic)” value (PA 91433; [2]) was 1 µg/mL and the FICI (PA 91433; antibiotic + compound 2) was less than 0.09. For the same compound, the MICAntibiotic (PA 91433; antibiotic alone) was 16 µg/mL, the FICAntibiotic (PA 91433; with compound 2) was 0.063 and the “MIC of antibiotic + Compound 2 in PAO1” value (WT P. aeruginosa PAO1) was 0.5 µg/mL. For the same compound, the “fold change of MIC + Compound 2 in PAO1” value (WT P. aeruginosa PAO1) was 2, the MIC (WT P. aeruginosa PAO1) was 1 µg/mL and the “FICI in the presence of ≤10 μM of 1” value (WT P. aeruginosa PAO1) was 0.51. The “MIC of Antibiotics in the presence of ≤10 μM of 1” value (WT P. aeruginosa PAO1) was 0.5 µg/mL, the “FICI in the presence of ≤10 μM of 2” value (WT P. aeruginosa PAO1) was 0.50 and the “MIC of Antibiotics in the presence of ≤10 μM of 2” value (WT P. aeruginosa PAO1) was 0.5 µg/mL. For the same compound, the “FICI in the presence of ≤10 μM of 3” value (WT P. aeruginosa PAO1) was 0.50, the “MIC of Antibiotics in the presence of ≤10 μM of 3” value (WT P. aeruginosa PAO1) was 0.5 µg/mL and the “MIC of antibiotic alone in PAO1” value (WT P. aeruginosa PAO1) was 1 µg/mL. For the same compound, the “MICCombination (antibiotic)” value (PA 114228) was 1 µg/mL, the FICI (PA 114228) was less than 0.14 and the MICAntibiotic (PA 114228) was 8 µg/mL. For the same compound, the FICAntibiotic (PA 114228) was 0.125, the “MIC of antibiotic + Compound 2 in PAO200” value (PAO200) was 0.25 µg/mL and the “fold change of MIC + Compound 2 in PAO200” value (PAO200) was 4. For the same compound, the “MIC of antibiotic alone in PAO200” value (PAO200) was 1 µg/mL, the “MIC of antibiotic + Compound 2 in PAO750” value (PAO750) was 0.25 µg/mL and the “fold change of MIC + Compound 2 in PAO750” value (PAO750) was 4. For the same compound, the “MIC of antibiotic alone in PAO750” value (PAO750) was 1 µg/mL, the “MICCombination (antibiotic)” value (PA 262) was 4 µg/mL and the FICI (PA 262) was less than 0.31. For the same compound, the MICAntibiotic (PA 262) was 16 µg/mL, the FICAntibiotic (PA 262) was 0.250 and the “resistant isolates reaching CLSI clinical breakpoint” value [1] was “three out of nine”. For the same compound, the “MICCombination (antibiotic)” value (PA 101243) was 8 µg/mL, the FICI (PA 101243) was less than 0.50 and the MICAntibiotic (PA 101243) was 16 µg/mL. For the same compound, the FICAntibiotic (PA 101243) was 0.500, the “MICCombination (antibiotic)” value (PA 260) was 8 µg/mL and the FICI (PA 260) was less than 0.53. It also gave an MICAntibiotic (PA 260) of 16 µg/mL and an FICAntibiotic (PA 260) of 0.500.
For `CCN1CCN(C(=O)N[C@@H](C(=O)N[C@@H]2C(=O)N3[C@@H]2SC(C)(C)[C@@H]3C(=O)O)c2ccccc2)C(=O)C1=O` [Piperacillin], the “MICCombination (antibiotic)” value (PA 100036) was 64 µg/mL, the FICI (PA 100036) was less than 1.06 and the MICAntibiotic (PA 100036) was 64 µg/mL. The FICAntibiotic (PA 100036) was 1.000, the “MICCombination (antibiotic)” value (PA 264) was 1024 µg/mL and the FICI (PA 264) was less than 0.52. For the same compound, the MICAntibiotic (PA 264) was 2048 µg/mL, the FICAntibiotic (PA 264) was 0.500 and the “MICCombination (antibiotic)” value (PA 101885) was 4 µg/mL. For the same compound, the FICI (PA 101885) was less than 0.31, the MICAntibiotic (PA 101885) was 16 µg/mL and the FICAntibiotic (PA 101885) was 0.250. For the same compound, the “MICCombination (antibiotic)” value (PA 259; [2]) was 256 µg/mL, the FICI (PA 259; antibiotic + compound 2) was less than 0.50 and the MICAntibiotic (PA 259) was 512 µg/mL. For the same compound, the FICAntibiotic (PA 259; with compound 2) was 0.500, the “MIC of antibiotic + Compound 2 in PAO1” value (WT P. aeruginosa PAO1) was 2 µg/mL and the “fold change of MIC + Compound 2 in PAO1” value (WT P. aeruginosa PAO1) was 4. For the same compound, the MIC (WT P. aeruginosa PAO1) was 8 µg/mL, the “FICI in the presence of ≤10 μM of 1” value (WT P. aeruginosa PAO1) was 0.26 and the “MIC of Antibiotics in the presence of ≤10 μM of 1” value (WT P. aeruginosa PAO1) was 2 µg/mL. The “FICI in the presence of ≤10 μM of 2” value (WT P. aeruginosa PAO1) was 0.25, the “MIC of Antibiotics in the presence of ≤10 μM of 2” value (WT P. aeruginosa PAO1) was 2 µg/mL and the “FICI in the presence of ≤10 μM of 3” value (WT P. aeruginosa PAO1) was 0.25. The “MIC of Antibiotics in the presence of ≤10 μM of 3” value (WT P. aeruginosa PAO1) was 2 µg/mL, the “MIC of antibiotic alone in PAO1” value (WT P. aeruginosa PAO1) was 8 µg/mL and the “MICCombination (antibiotic)” value (PA 114228) was 8 µg/mL. The FICI (PA 114228) was less than 0.50, the MICAntibiotic (PA 114228) was 16 µg/mL and the FICAntibiotic (PA 114228) was 0.500. The “MIC of antibiotic + Compound 2 in PAO200” value (PAO200) was 1 (1) μg/ml, the “fold change of MIC + Compound 2 in PAO200” value (PAO200) was 1 (1) and the “MIC of antibiotic alone in PAO200” value (PAO200) was 1 µg/mL. The “MIC of antibiotic + Compound 2 in PAO750” value (PAO750) was 0.5 µg/mL, the “fold change of MIC + Compound 2 in PAO750” value (PAO750) was 4 and the “MIC of antibiotic alone in PAO750” value (PAO750) was 2 µg/mL. The “MICCombination (antibiotic)” value (PA 262) was 512 µg/mL, the FICI (PA 262) was less than 0.52 and the MICAntibiotic (PA 262) was 1024 µg/mL. For the same compound, the FICAntibiotic (PA 262) was 0.500, the “resistant isolates reaching CLSI clinical breakpoint” value [1] was “zero out of six” and the “MICCombination (antibiotic)” value (PA 101243) was 128 µg/mL. For the same compound, the FICI (PA 101243) was less than 1.06, the MICAntibiotic (PA 101243) was 128 µg/mL and the FICAntibiotic (PA 101243) was 1.000. For the same compound, the “MICCombination (antibiotic)” value (PA 260) was 512 µg/mL, the FICI (PA 260) was less than 1.06 and the MICAntibiotic (PA 260) was 512 µg/mL. For the same compound, the FICAntibiotic (PA 260) was 1.000.
